Experimental data taken from US20160045487A1, “COMPOSITIONS AND METHODS FOR TREATING NEUROPATHY” (CHILDEREN'S MEDICAL CENTER CORPORATION, priority 2013, published 2016).

Key:
[1] = test system: GFAP-DN-erbB4 and wild type mice; assay: Mechanical sensitivity (von Frey filaments); assay type: in vivo, mouse; details: after 4 weeks topical treatment, cream 1.5 mM
Protocol: As a first test, a cream containing XIB4035 (1.5 mM) was applied directly to the hind paws of GFAP-DN-erbB4 and wild type mice twice daily for a period of 4 weeks starting prior to symptom onset (P21). Mice of both genotypes were also treated with the base cream containing no drug for control. Mice were tested for responses to a noxious thermal stimulus prior to the initiation of treatment and every 7 days for the duration of the experiment.
Mechanical sensitivity was tested by simulation of the plantar surface of the hind paw with a series of von Frey filaments while the animal was placed on an elevated wire grid. The threshold was determined as the lowest force that evoked a visible withdrawal response. The use of animals was approved by the Animal Care and Use Committee of Children's Hospital Boston.

TrkA = target: T1, TrkA (Rattus norvegicus, UniProt P35739); assay: NGF-induced TrkA phosphorylation in PC12 cells; assay type: cell-based; details: 50 ng/ml NGF with 20 μM XIB4035, 10 minutes; 15, 30 or 45 minutes after
T1 construct: endogenous in cells; host or cells: PC12 (PC-12) cells
T1 sequence (P35739 33-799): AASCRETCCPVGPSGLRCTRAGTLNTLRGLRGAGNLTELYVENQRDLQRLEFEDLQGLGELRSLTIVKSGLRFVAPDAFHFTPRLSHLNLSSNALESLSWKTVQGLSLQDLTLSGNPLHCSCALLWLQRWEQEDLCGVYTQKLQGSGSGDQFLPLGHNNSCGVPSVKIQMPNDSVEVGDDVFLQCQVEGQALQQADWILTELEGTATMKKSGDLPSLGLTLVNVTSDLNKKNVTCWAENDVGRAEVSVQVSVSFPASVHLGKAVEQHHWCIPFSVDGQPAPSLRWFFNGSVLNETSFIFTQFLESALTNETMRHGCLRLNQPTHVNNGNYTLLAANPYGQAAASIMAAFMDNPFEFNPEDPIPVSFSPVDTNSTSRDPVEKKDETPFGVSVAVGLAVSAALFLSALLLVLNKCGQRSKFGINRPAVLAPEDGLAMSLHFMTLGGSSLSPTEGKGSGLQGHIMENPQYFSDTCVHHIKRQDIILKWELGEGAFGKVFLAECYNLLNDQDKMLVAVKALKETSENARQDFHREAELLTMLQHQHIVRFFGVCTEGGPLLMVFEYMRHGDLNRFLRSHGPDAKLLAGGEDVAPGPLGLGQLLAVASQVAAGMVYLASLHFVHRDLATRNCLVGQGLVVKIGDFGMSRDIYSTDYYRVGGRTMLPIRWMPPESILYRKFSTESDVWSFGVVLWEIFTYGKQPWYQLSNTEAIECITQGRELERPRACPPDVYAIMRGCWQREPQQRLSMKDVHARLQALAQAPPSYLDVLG
Protocol: PC12 cells were treated with 50 ng/ml of NGF with or without 20 μM XIB4035 for 10 minutes. Cell lysates were either collected immediately or after cells were incubated in growth media for additional 15, 30, or 45 minutes. Cell lysates were subjected to immunoprecipitation using anti-TrkA antibodies and analysis via phospho-tyrosine Western blot. TrkA phosphorylation is not prolonged by addition of XIB4035.
For phosphorylated Ret immunoblot experiments, cells were treated with various combinations of molecules for 10 minutes and either collected immediately or had treatment washed out and returned to control treatment media for the times indicated prior to cell collection. Lysates were collected in buffer containing: 50 mM Tris-HCL, 1% TX-100, 0.25% Deoxycholic acid, 150 mM sodium chloride, 1 mM EDTA, 0.1 mM sodium fluoride, 0.1 mM sodium pyrophosphate, 0.02 mM sodium orthovanadate, and protease inhibitors Immunoblots were blocked in 5% bovine serum albumin in tris-buffered saline+0.2% Tween 20+0.1 mM sodium fluoride, 0.1 mM sodium pyrophosphate, and 0.02 mM sodium orthovanadate and probed in blocking solution using anti-phospotyrosine (4G10) mouse monoclonal antibody (1:2000; EMD Milipore Corp., Billerica, Mass.). Secondary detection was performed in blocking solution using HRP-conjugated goat-anti-mouse antibodies (1:1000; MP Biolomedicals LLC, Solon, Ohio). […]

[2] = test system: GFRα/RET receptor signaling; assay: Tyrosine hydroxylase promoter luciferase reporter assay in SH-SY5Y-THpGL3 cells; assay type: cell-based, human; details: for effect in the TH-luciferase assay: XIB4035 alone
Text: One goal of these studies was to determine if XIB4035 could be used for treating SFN in humans. Using the Neuro2A (N2A) murine neuroblastoma cell line, Tokugawa et al. (supra) reported XIB4035 as a competitive agonist for the GDNF receptor GFRα1 that activates the RET receptor. Since populations of DRG sensory neurons express different GFRα receptors, thus making them preferentially responsive to the particular ligands, it was important to determine if XIB4035 was specific to GFRα1 or could act on other family members. Since PSPN has no effect on peripheral sensory neurons, the GFRα1, GFRα2, and GFRα3 receptors were the focus of these studies. The SH-SY5Y, a human neuroblastoma cell line expressing mRNA for GFRα1, GFRα2, and GFRα3, was used to perform two cell-based assays; immunoblots measuring RET phosphorylation and a luciferase reporter assay using the tyrosine hydroxylase (TH) promoter. For the latter two paradigms were used, either overnight treatment immediately followed by luciferase activity measurements or 10 minute treatments followed by washout and overnight incubation prior to measurements. GDNF and ARTN induced robust TH-luciferase activity in a dose dependent manner (FIG. 3E). Because the responses to GDNF and ARTN were more robust, these two factors were chosen for further analysis.
The tyrosine hydroxylase promoter was cloned into the pGL3 basic vector (Promega, Madison, Wis., USA) at the Mlu I and Hind III sites, as previously described (Zwick, supra) (TH-pGL3). Briefly, a 2 Kb promoter region upstream from the transcription initiation site of the rat TH gene was cloned from genomic DNA using the primer sequences, […] and […]. SH-SY5Y cells were co-transfected with the TH-pGL3 and the pBabe-puromycin expression vectors at a molar ratio of 10:1. Cells were selected for stable puromycin resistance at a final concentration of 0.5 μg/ml of puromycin-dihydrochloride. Stable colonies were selected and tested for TH-directed luciferase response to GDNF family ligand stimulation. One stable clone, SH-SY5Y-THpGL3, with good signal-to-noise ratio was selected for use in the experiments.
SH-SY5Y-THpGL3 cells were maintained in DMEM/F12, 5% FBS, and 1% penicillin/streptomycin and plated on collagen coated plates (4 μg/ml). Neuro-2A cells were grown in MEM, 5% FBS, and 1% penicillin/streptomycin. BE(2)-C cells were grown in DMEM/F12 media containing 5% FBS and 1% penicillin/streptomycin. PC-12 cells were maintained in media containing RPMI-1640, 10% horse serum, 5% FBS, and 1% penicillin/streptomycin on collagen coated plates. For luciferase assays, cells were treated for either 10 minutes with washout or overnight with various molecules and assayed for firefly luciferase 16-24 hours post-treatment using the luciferase assay system (Promega, Madison, Wis., USA).

## CCN(CC)CCCC(C)Nc1cc(/C=C/c2ccccc2Cl)nc2cc(Cl)ccc12 (stereo not drawn) [XIB4035, N4-{7-chloro-2-[(E)-2-(2-chloro-phenyl)-vinyl]-quinolin-4-yl}-N1,N1-diethyl-pentane-1,4-diamine]
[1]
  effect on mechano-reception (response thresholds to mechanical stimuli): no effect
TrkA
  NGF-induced TrkA phosphorylation: not prolonged
[2]; 18 nM ARTN + 20 μM XIB4035
  maximal effect, luciferase activity: 3.61±0.47 fold over control
[2]; 18 nM GDNF + 20 μM XIB4035
  maximal effect, luciferase activity: 3.41±0.41 fold over control
[2]; ARTN + 20 μM XIB4035, 10 minutes, washout, overnight
  minimal ARTN dose necessary to induce luciferase activity above control: 2.7 pM
[2]; GDNF + 20 μM XIB4035, 10 minutes, washout, overnight
  minimal GDNF dose necessary to induce luciferase activity above control: 2.7 pM
[2]; 10 minute treatment, 1-15 μM, washout, overnight incubation
  effect in the TH-luciferase assay: no effect
[2]; overnight treatment, 6.25-500 nM
  effect in the TH-luciferase assay: no effect
[2]; co-treatment with either GDNF or ARTN over a range of doses
  effect on ligand-induced TH-luciferase activity: significantly potentiates
